According to US20260098037A1, “COMPOUND CONTAINING MULTI-FUSED RING STRUCTURE” (Chia Tai Tianqing Pharmaceutical Group Co., Ltd., priority 2023, published 2026):
Like-named read-outs stand apart in the source and are kept apart here.

Columns and labels:
[1] = tested on: GLP-1R humanized C57BL/6J mice; assay: Evaluation of hypoglycemic effect in mice (intraperitoneal glucose challenge); type: in vivo; settings: intragastric dose 1 mg/kg, glucose 2 g/kg ip 5 h after administration
Excerpt: GLP-1R humanized C57BL/6J mice of 20-22 g were used in this study after 3 days of acclimatization. All the animals were deprived of food but not water until the end of study. Blood samples were collected from the tail tip of the mice.
The test animals were deprived of food but not water overnight before the study. The next day, blood was collected from all the animals for blood glucose testing, and the animals were randomized into a normal control group, a positive control group, and test compound groups by blood glucose and body weight, with 6 animals in each group. The groups were then given intragastric doses, and 5 h after the administration, an intraperitoneal injection of glucose solution (2 g/kg) was given. The blood glucose concentration was measured at 0.25 h, 0.5 h, 1 h, 2 h, and 3 h after the glucose injection. The blood glucose was recorded throughout the study, and the area under the blood glucose-time curve AUC0-180 min Glu was calculated.

[2] = In vivo pharmacokinetic evaluation in mice; settings: mouse, plasma, ICR mice; for bioavailability: ig 3 mg/kg vs iv 0.5 mg/kg, read-out: Absolute bioavailability F; for MRT last: read-out: MRT(0-24); for half-life: read-out: t½ (converted); for AUC(0-t): read-out: AUC(0-24)
Procedure: ICR mice of 18-22 g were randomized into 4 groups of 9 mice after 3-5 days of acclimatization. […]
The test animals (ICR mice) were fasted from 12 h pre-dose to 4 h post-dose, and given free access to water throughout the study.
Orbital blood samples of about 0.1 mL were collected at 15 min, 30 min, 1 h, 2 h, 3 h, 4 h, 6 h, 8 h, 10 h, and 24 h post-dose for the intragastric administration, and at 5 min, 10 min, 30 min, 1 h, 2 h, 4 h, 6 h, 8 h, 10 h, and 24 h post-dose for the intravenous administration. The blood sampling was performed at 3-4 time points for each mouse, 3 mice per time point. The collected whole blood was transferred into EDTA-K2-containing centrifuge tubes and stored at 4° C., and, within 1 h, centrifuged at 4° C. at 4000 rpm for 10 min to separate the plasma. All the plasma samples were immediately stored after collection at −20° C. for testing.
30 μL of the plasma sample to be tested and a standard curve sample were pipetted and added with 300 μL of an acetonitrile solution containing an internal standard (20 ng/mL of diazepam). The mixture was shaken to mix well for 5 min, and centrifuged at 13,000 rpm for 10 min. 80 μL of the supernatant was taken and diluted with 80 μL of ultrapure water. After a thorough mixing, 2 μL of the resulting sample was taken for liquid chromatography-mass spectrometry, and the chromatogram was recorded.

GLP1R = GLP1R (Homo sapiens, UniProt P43220); assay: In vitro cellular cAMP expression activity assay (CRE-luciferase reporter); type: cell-based; settings: HEK293/CRE-Luc/GLP1R cells, 6 h incubation, luciferase luminescence; read-out: HEK293/CRE-Luc/GLP-1R EC50
Procedure: HEK293/CRE-Luc/GLP1R cells (manufacturer: GenScript Biotech Corporation) in a good growth state were taken, washed with PBS, and digested with pancreatin. The digestion was terminated with a complete medium. The cells were collected into a centrifuge tube, adjusted to a cell density of 4×10^5 cells/mL using a DMEM+2% FBS medium, seeded in a 96-well plate (100 μL/well), and incubated at 37° C. for 1 h. After 1 h, the compounds were added using a nanoliter pipettor such that the final concentrations of the compounds were 10 nM-0.0006 nM. The compounds were added in duplicate, and a control was set. After the cells were incubated in a cell incubator for another 6 h, a detection reagent Luciferase (manufacturer: Vazyme Biotech, 50 μL/well) was added. The plate was left to stand at room temperature for 3 min to fully lyse the cells, and the luminescence was detected on a PerkinElmer Envision microplate reader. A dose-response curve was fitted by four-parameter analysis, and the EC50 was calculated.

[3] = In vitro stability assay in liver microsome (HLM); type: in vitro ADME, human; settings: liver microsome 0.5 mg/mL, NADPH+MgCl2, PBS pH 7.4, 1 h
Procedure: (§1) Liver microsome incubation samples were prepared by mixing a PBS buffer (pH 7.4), a liver microsome solution (0.5 mg/mL), a test compound, and an NADPH+MgCl2 solution, and incubated at […] and 300 rpm for 1 h. Zero-hour samples were prepared by mixing a PBS buffer (pH 7.4), a liver microsome solution (0.5 mg/mL), and a test compound. An acetonitrile solution containing an internal standard was added to the samples, and supernatants were prepared by protein precipitation, diluted, and then assayed by LC/MS/MS.

[4] = In vitro stability assay in liver microsome (MLM); type: in vitro ADME, mouse; settings: liver microsome 0.5 mg/mL, NADPH+MgCl2, PBS pH 7.4, 1 h
Procedure: as §1

Chain of GLP1R (P43220 24-463): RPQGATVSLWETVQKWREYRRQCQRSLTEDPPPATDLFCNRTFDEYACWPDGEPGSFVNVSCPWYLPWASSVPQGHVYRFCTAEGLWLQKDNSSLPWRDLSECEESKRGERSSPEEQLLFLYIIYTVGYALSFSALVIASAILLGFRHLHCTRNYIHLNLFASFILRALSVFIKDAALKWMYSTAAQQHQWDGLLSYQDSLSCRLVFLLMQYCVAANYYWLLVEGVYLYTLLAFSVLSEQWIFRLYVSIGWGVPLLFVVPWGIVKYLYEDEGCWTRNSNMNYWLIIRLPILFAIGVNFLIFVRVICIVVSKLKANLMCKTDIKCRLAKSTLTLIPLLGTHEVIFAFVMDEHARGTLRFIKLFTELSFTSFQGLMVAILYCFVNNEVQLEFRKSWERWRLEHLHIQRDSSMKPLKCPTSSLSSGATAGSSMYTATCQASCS

bioavailability ([2]; po) [%]	MRT last ([2]; po, ig, dose 3 mg/kg) [h]	half-life ([2]; po, ig, dose 3 mg/kg) [h]	MRT last ([2]; iv, dose 0.5 mg/kg) [h]	half-life ([2]; iv, dose 0.5 mg/kg) [h]	AUC(0-inf) ([2]; po, ig, dose 3 mg/kg) [ng·h/mL]	AUC(0-t) ([2]; po, ig, dose 3 mg/kg) [ng·h/mL]	AUC(0-inf) ([2]; iv, dose 0.5 mg/kg) [ng·h/mL]	AUC(0-t) ([2]; iv, dose 0.5 mg/kg) [ng·h/mL]	EC50 (GLP1R) [nM]	HLM Remaining (T = 60 min) [3] [%]	MLM Remaining (T = 60 min) [4] [%]	Compound	AUC0-180 min Glu reduction (%) [1] [%]
35.2	7.8	4.27	5.16	4.6	4780	4640	2260	2220	< 0.5	98.60	94.32	Cc1cc(-n2nc3c(c2-n2ccn(-c4ccc5c(c4)N(C)C(=O)C54CC4)c2=O)[C@H](C)N(C(=O)c2cc4cc(C5CCOC(C)(C)C5)ccc4n2[C@@]2(c4noc(=O)[nH]4)C[C@@H]2C)CC3)cc(C)c1F (single isomer, unassigned) [Compound 5]	83
37.8	10.1	5.54	6.78	5.77	4910	4560	2170	2060	< 0.5	89.53	90.40	Cc1cc(-n2nc3c(c2-n2ccn(-c4ccc5c(c4F)N(C)C(=O)C54CC4)c2=O)[C@H](C)N(C(=O)c2cc4cc([C@H]5CCOC(C)(C)C5)ccc4n2[C@@]2(c4noc(=O)[nH]4)C[C@@H]2C)CC3)cc(C)c1F [Compound 14]	79
									< 0.5	86.20	87.54	Cc1cc(-c2nn3c(c2-n2ccn(-c4ccc5c(c4)N(C)C(=O)C54CC4)c2=O)[C@H](C)N(C(=O)c2cc4cc([C@H]5CCOC(C)(C)C5)ccc4n2[C@@]2(c4noc(=O)[nH]4)C[C@@H]2C)CC3)cc(C)c1F [Compound 27-D]	75
